The text below walks through data of ChEMBL document CHEMBL1201862, “PubChem BioAssay data set” (2004).

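Grown in 96-well plates, cells were treated for 48 hours with each compound at five concentrations. Insufficient inhibition: endpoint recorded as highest concentration tested. GI50 is the concentration that inhibits growth by half.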 Active and inactive are the calls of the source. No stated cut-off is given here; in the data, active = GI50 up to about 1.1 µM and inactive = higher. Peptide text beside a SMILES is read from it. * marks the point of attachment. Boc = CC(C)(C)OC(=O)*

Among the test systems are A498; COLO 205; DU-145; EKVX; M14; MDA-MB-231; MOLT-4; NCI-H226; NCI-H23; NCI-H460; NCI-H522; RPMI-8226; SK-MEL-28; SK-MEL-2; SNB-19; SNB-75; SW-620; T47D; SR.
What all share (assay): NCI-60 cell line screen, 48 h

In the case of `O=c1ccc(=O)n(-c2ccccc2)[nH]1`, the GI50 with A498, with COLO 205, in the test with DU-145, with EKVX, in the test on M14 and with MDA-MB-231 was > 100 µM (inactive) throughout. Besides, the GI50 with MOLT-4, with NCI-H226, in the test with NCI-H23, in the test on NCI-H460, with NCI-H522 and with RPMI-8226 was > 100 µM (inactive) in each case. The GI50 with SK-MEL-28, with SK-MEL-2, in the test with SNB-19, with SNB-75, with SW-620 and with T47D was > 100 µM (inactive) in each case.
For `CCOCC(NC(=O)C(CC(C)C)NC(=O)OC(C)(C)C)C(N)=O` (stereo not drawn) (Boc-Leu-Ser(Et)-NH2; configuration not given here), the GI50 with A498, in the test with COLO 205, with DU-145, in the test with EKVX, with M14 and with MDA-MB-231 was > 100 µM (inactive) throughout. Moreover, the GI50 with MOLT-4 was > 100 µM (inactive); in the test on NCI-H226 it was > 100 µM (inactive); with NCI-H23 it was > 100 µM (inactive); with NCI-H522 it was > 100 µM (inactive); in the test on SK-MEL-28, 1.31 µM (inactive); in the test on SK-MEL-2, > 100 µM (inactive). The GI50 in the test on SNB-19 was > 100 µM (inactive); in the test on SNB-75 it was 0.11 µM (active); in the test on SW-620, 1.59 µM (inactive); with T47D, > 100 µM (inactive).
`COc1ccc(N[S+]([O-])c2ccccc2OC)cc1` (stereo not given): the GI50 with COLO 205 was 24.4 µM (inactive); in the test on DU-145, 27.5 µM (inactive); in the test on EKVX, 38.9 µM (inactive); in the test with M14, 33.3 µM (inactive); in the test with MDA-MB-231 it was 15 µM (inactive); in the test on MOLT-4 it was 27 µM (inactive). Besides, the GI50 is 13.4 µM (inactive) in the test on NCI-H226; 40.8 µM (inactive) with NCI-H23; 16 µM (inactive) with NCI-H460; 5.26 µM (inactive) with NCI-H522; 18.7 µM (inactive) in the test with RPMI-8226; 54.8 µM (inactive) with SK-MEL-28. Moreover, the GI50 in the test on SK-MEL-2 was 11.8 µM (inactive); in the test with SNB-19 it was 36.2 µM (inactive); in the test with SR it was 11.9 µM (inactive); in the test on SW-620, 22.7 µM (inactive); in the test with T47D, 4.37 µM (inactive).
On to `COc1ccc(OCc2nc3cc(C(F)(F)F)ccc3nc2-c2ccccc2)cc1`, for which the GI50 in the test with A498 is 94.8 µM (inactive); in the test on COLO 205, > 100 µM (inactive); in the test with DU-145, > 100 µM (inactive); in the test on EKVX, > 100 µM (inactive); in the test with M14, > 100 µM (inactive); in the test on MDA-MB-231 it was 27.4 µM (inactive). Further, the GI50 with MOLT-4, in the test with NCI-H226, with NCI-H23, with NCI-H460, in the test on RPMI-8226 and in the test with SK-MEL-28 was > 100 µM (inactive) throughout. The GI50 in the test on SK-MEL-2 was > 100 µM (inactive); in the test on SNB-19 it was > 100 µM (inactive); in the test with SNB-75, > 100 µM (inactive); with SW-620, > 100 µM (inactive); in the test on T47D, 13.5 µM (inactive).
Turning to `Cc1ccc(S(=O)(=O)N2CCCCN(S(=O)(=O)c3ccc(C)cc3)Cc3ccccc3OCCOCCOc3c4cccc3Cc3cccc5c3OCCOCCOc3ccccc3CN(S(=O)(=O)c3ccc(C)cc3)CCCN(S(=O)(=O)c3ccc(C)cc3)Cc3ccccc3OCCOCCOc3c(cccc3C4)Cc3cccc(c3OCCOCCOc3ccccc3C2)C5)cc1`, the GI50 in the test with A498 is 53.2 µM (inactive); in the test on COLO 205 it was > 100 µM (inactive); in the test on DU-145 it was > 100 µM (inactive); in the test on EKVX, > 100 µM (inactive); with M14, > 100 µM (inactive); in the test on MDA-MB-231, > 100 µM (inactive). In addition, the GI50 was > 100 µM (inactive) in the test with MOLT-4; > 100 µM (inactive) in the test with NCI-H226; > 100 µM (inactive) with NCI-H23; > 100 µM (inactive) in the test with NCI-H460; 78.9 µM (inactive) in the test on NCI-H522; > 100 µM (inactive) with RPMI-8226. Also, the GI50 in the test with SK-MEL-2, in the test on SNB-19, in the test with SNB-75, with SW-620 and in the test on T47D was > 100 µM (inactive) throughout.
Consider `Cn1c2ccccc2c(=O)c2cccc(C(=O)NC(CCCNC(=N)N)C(=O)O)c21` (stereo not given), for which the GI50 in the test on COLO 205, with DU-145, with EKVX, in the test on M14, with MDA-MB-231 and in the test on MOLT-4 was > 100 µM (inactive) each time. In addition, the GI50 in the test on NCI-H226, in the test on NCI-H23, in the test on NCI-H460, in the test on RPMI-8226, with SK-MEL-28 and in the test with SK-MEL-2 was > 100 µM (inactive) in each case. In addition, the GI50 in the test on SNB-19, in the test with SNB-75, in the test with SW-620 and in the test with T47D was > 100 µM (inactive) throughout.
Consider `C[N+](C)(C)CCCSc1nc2ccccc2[nH]1`, for which the GI50 in the test with A498, with COLO 205, in the test with DU-145, in the test on EKVX, with M14 and with MDA-MB-231 was > 100 µM (inactive) each time. In addition, the GI50 in the test on MOLT-4, with NCI-H226, in the test with NCI-H23, in the test with NCI-H460, with NCI-H522 and with RPMI-8226 was > 100 µM (inactive) throughout. Moreover, the GI50 in the test with SK-MEL-28, with SK-MEL-2, in the test on SNB-19, with SW-620 and in the test with T47D was > 100 µM (inactive) each time.
As to `O=C1/C(=C/c2ccc(O)c([N+](=O)[O-])c2)CCC/C1=C\c1ccc(O)c([N+](=O)[O-])c1`, the GI50 was 6.55 µM (inactive) with A498; 13.5 µM (inactive) in the test with COLO 205; 9.77 µM (inactive) in the test on DU-145; 22.6 µM (inactive) with EKVX; 10.8 µM (inactive) in the test with M14; 21.9 µM (inactive) in the test with MDA-MB-231. Also, the GI50 is 13.9 µM (inactive) with MOLT-4; 11.6 µM (inactive) in the test with NCI-H226; 12.3 µM (inactive) in the test with NCI-H23; 17.8 µM (inactive) in the test on NCI-H460; 8.93 µM (inactive) in the test with NCI-H522; 13.1 µM (inactive) in the test on RPMI-8226. Also, the GI50 with SK-MEL-28 was 7.5 µM (inactive); in the test with SK-MEL-2, 11.4 µM (inactive); in the test on SNB-19 it was 11.7 µM (inactive); in the test on SNB-75, 1.61 µM (inactive); with SW-620, 10.2 µM (inactive); in the test with T47D, 14.9 µM (inactive).
With `C=C(CO)[C@H]1CC/C(C)=C/CC/C(C)=C/C/C=C(\C)[C@H](O)C1`, the GI50 with COLO 205 was 22.3 µM (inactive); with DU-145 it was 49.3 µM (inactive); with EKVX it was 33.2 µM (inactive); in the test with MDA-MB-231, 21.6 µM (inactive); in the test with MOLT-4, 18.3 µM (inactive); with NCI-H226 it was 30.5 µM (inactive). Moreover, the GI50 with NCI-H23 was 29.2 µM (inactive); with NCI-H460, 22.1 µM (inactive); in the test on NCI-H522 it was 16.9 µM (inactive); in the test with RPMI-8226 it was 20 µM (inactive); in the test with SK-MEL-28 it was 16 µM (inactive); in the test on SK-MEL-2 it was 22.8 µM (inactive). Also, the GI50 in the test with SNB-19 was 47.4 µM (inactive); in the test on SNB-75, 31 µM (inactive); in the test with SW-620 it was 20.2 µM (inactive); with T47D it was 48 µM (inactive).
With `Cc1oc2c(c1C)S(=O)(=O)C(C#N)C(c1ccccc1)N2` (stereo not given), the GI50 in the test with A498 was > 100 µM (inactive); with COLO 205, 29.3 µM (inactive); with DU-145 it was 80.7 µM (inactive); in the test with EKVX, > 100 µM (inactive); in the test on M14 it was 40.4 µM (inactive); in the test on MDA-MB-231, > 100 µM (inactive). Besides, the GI50 is 20.6 µM (inactive) in the test with MOLT-4; > 100 µM (inactive) in the test with NCI-H226; 69.5 µM (inactive) in the test on NCI-H23; 41 µM (inactive) in the test with NCI-H460; 16.9 µM (inactive) in the test with NCI-H522; > 100 µM (inactive) with SK-MEL-28. In addition, the GI50 with SK-MEL-2 was 61.8 µM (inactive); with SNB-19, > 100 µM (inactive); with SNB-75 it was 40.2 µM (inactive); in the test with SW-620 it was > 100 µM (inactive); in the test on T47D, 62.5 µM (inactive).
In the case of `S=C1Cc2c([nH]c3ccccc23)-c2ccccc2N1`, the GI50 is > 100 µM (inactive) in the test on COLO 205; 41.3 µM (inactive) with DU-145; 40.4 µM (inactive) in the test with EKVX; > 100 µM (inactive) with M14; 42.9 µM (inactive) in the test with MDA-MB-231; 23.6 µM (inactive) in the test on MOLT-4. Besides, the GI50 in the test on NCI-H226 is 29.5 µM (inactive); with NCI-H23, 79.1 µM (inactive); with NCI-H460, 35.4 µM (inactive); in the test on RPMI-8226 it was > 100 µM (inactive); in the test on SK-MEL-28, > 100 µM (inactive); in the test with SNB-19, 34.4 µM (inactive). The GI50 was 26.2 µM (inactive) with SNB-75, 42 µM (inactive) with SR, > 100 µM (inactive) in the test with SW-620 and > 100 µM (inactive) in the test on T47D.
